One series deals with T1, rat UT-A1 (Rattus norvegicus, UniProt Q62668).
T1 construct: expressed in transfected cells; host or cells: MDCK cells stably co-expressing rat UT-A1, human AQP1 and YFP-H148Q/V163S
T1 sequence (Q62668 1-929): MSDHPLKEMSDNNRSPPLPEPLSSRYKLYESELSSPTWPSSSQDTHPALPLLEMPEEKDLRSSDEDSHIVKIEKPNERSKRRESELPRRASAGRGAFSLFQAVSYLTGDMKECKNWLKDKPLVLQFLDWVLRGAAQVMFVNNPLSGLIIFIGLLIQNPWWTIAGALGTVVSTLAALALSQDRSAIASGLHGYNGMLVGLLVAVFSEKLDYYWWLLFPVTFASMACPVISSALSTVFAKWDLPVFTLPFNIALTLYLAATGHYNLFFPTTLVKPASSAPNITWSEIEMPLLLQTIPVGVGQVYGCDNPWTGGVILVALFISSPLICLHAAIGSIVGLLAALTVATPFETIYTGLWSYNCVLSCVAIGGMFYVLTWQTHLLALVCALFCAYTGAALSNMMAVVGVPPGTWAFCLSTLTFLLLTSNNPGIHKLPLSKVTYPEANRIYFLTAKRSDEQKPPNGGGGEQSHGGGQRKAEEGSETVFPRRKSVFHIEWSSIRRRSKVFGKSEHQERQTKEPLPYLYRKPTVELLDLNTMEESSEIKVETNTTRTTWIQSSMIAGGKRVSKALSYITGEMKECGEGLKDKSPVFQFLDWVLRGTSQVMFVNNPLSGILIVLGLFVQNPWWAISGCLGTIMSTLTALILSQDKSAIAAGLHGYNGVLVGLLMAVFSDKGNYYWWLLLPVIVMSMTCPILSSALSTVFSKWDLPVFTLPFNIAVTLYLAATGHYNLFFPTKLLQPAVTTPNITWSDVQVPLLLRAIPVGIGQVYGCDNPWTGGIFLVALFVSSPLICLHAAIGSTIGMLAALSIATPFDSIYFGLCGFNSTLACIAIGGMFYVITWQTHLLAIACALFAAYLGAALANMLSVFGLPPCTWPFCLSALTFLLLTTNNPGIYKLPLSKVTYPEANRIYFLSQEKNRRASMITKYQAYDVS
Put plainly: In vitro functional studies of UT-A1 inhibition (reversibility, urea competition, kinetics). The format is cell-based. To be noted: for Mechanism of inhibition of urea transport: urea concentration-dependence of apparent IC50. As to the method: Reversibility of UT-A1 inhibition was tested by pre-incubating MDCK cells expressing rat UT-A1, YFP-H148Q/V163S and AQP1 with inhibitors for 15 min (at 3 μM) and then washing the cells with PBS prior to assay. The urea concentration-dependence of UT-A1 inhibition was studied from inhibitor concentration-response data using different of urea gradients at zero initial intracellular urea concentration, or after preincubation of cells with different concentrations of urea for 10 min prior to a 1,600 mM urea gradient. The kinetics of UT-A1 inhibition was measured by adding inhibitors (3 μM) at different time points (0 to 10 min) prior to assay.
Inhibitor reversibility was studied by incubation of the UT-A1-expressing cells with compounds for 15 min and washing, followed by assay of UT-A1 inhibition. UT-A1 urea transport after inhibitor washout was the same as before inhibitor addition for all compounds (FIG. 3A), indicating full reversibility. Inhibitor competition with urea, as might occur by steric hindrance if the inhibitor and urea occupied physically overlapping sites on the UT-A1 protein, was studied from the urea concentration-dependence of apparent inhibitor IC50. Studies were done with zero urea inside cells initially and different urea concentrations outside, and with different urea concentrations inside cells initially and the same inward urea gradient.
To further evaluate the potential site of inhibitor action, the kinetics of UT-A1 inhibition was measured by assay of UT-A1 inhibition at different times after compound addition. […] To assess inhibitor membrane permeability transport of UTAinh-E02 and UTAinh-F11 across MDCK monolayers grown on porous filters by LC/MS was measured. Transport of UTAinh-F11 was much faster than that of UTAinh-E02 (FIG. 3C, right lower panel), with computed transepithelial permeability coefficients of […] and 1.1×10^−5 cm/s, respectively. […]

A further series deals with T2, UT-A1 (Rattus norvegicus, UniProt Q62668).
T2 construct: expressed in transfected cells; host or cells: MDCK cells
T2 sequence (Q62668 1-929): T1 sequence (Q62668 1-929)
As to the kind of experiment: Transepithelial urea transport in UT-A1-expressing MDCK cells on porous filters. To be noted: 3 μM inhibitor, forskolin 10 μM. The format is cell-based. On the procedure:
UT-A1 expressing MDCK cells were grown on 12-mm diameter collagen-coated Transwell inserts (0.4 μm pore size; Costar, Costar, N.Y.) to form tight monolayers (resistance>500 Ωcm^2), as described (see, e.g., Levin et al. (2007) FASEB J. 21, 551-563). Urea flux in the basolateral-to-apical direction was measured in response to a 15 mM urea gradient in which PBS containing forskolin (10 μM), with or without UT-A1 inhibitor and 0.7 mM phloretin, was added to both the apical-facing (0.2 mL) and basal-facing (2 mL) surfaces. After 30 min the basal-facing solution was replaced by PBS containing test compound+15 mM urea. Apical fluid samples (5 μL) were collected at specified times for enzymatic assay of urea (QUANTICHROME Urea Assay Kit; BioAssay Systems, Hayward, Calif.). To measure inhibitor permeability across MDCK cell layers, compounds (20 μM) were added on the basal-facing surface and fluid samples (20 μL) from the apical-facing surface were collected at different time points and analyzed by LC/MS.
Transepithelial urea transport from the basolateral to the apical solution was measured by enzymatic assay of urea in the apical solution following urea addition to the basal-facing solution.

Series [1] deals with multiple anion (CFTR, calcium-activated chloride channels) and cation (K+, Na+) channels. Put plainly: Short-circuit current in MDCK cells (ion channel off-target effects). The format is cell-based, canine. To be noted: 20 μM inhibitor, forskolin and ATP. On the procedure:
MDCK cells on black 96-well Costar microplates with clear plastic bottoms were cultured for 24 h at 37° C. and incubated with test compounds (0 to 25 μM) for 24 h. Cell viability was assayed using AlamarBlue (Pierce, Rockford, Ill.) in which the reagent was added to each well, incubated for 30 min, and absorbance measured at 590 nm. For short-circuit current measurement, snapwell inserts containing MDCK cells were mounted on Ussing chambers. Test compounds (20 μM) were incubated with MDCK cells at both apical and basolateral sides for 10 min at 37° C. prior to addition of 20 μM forskolin and then 100 μM ATP. The apical and basolateral chambers contained identical solutions: 120 mM NaCl, 5 mM KCl, 1 mM MgCl2, 1 mM CaCl2, 5 mM HEPES, 25 mM NaHCO3 and 10 mM glucose. Solutions were bubbled with 5% CO2/95% O2 and maintained at 37° C. […]
Compound toxicity was evaluated by compound incubation for 24 h with MDCK cell cultures followed by Alamar blue assay. […] To assess potential ion channel off-target effects, short-circuit current was measured in MDCK cells in response to cAMP (forskolin) and calcium (ATP) agonists (FIG. 5C, right), which depends on the actions of multiple anion (CFTR, calcium-activated chloride channels) and cation (K^+, Na^+) channels.

Results on two molecules are retold here after patent publication US11123340B2, “Small-molecule UT-A-selective urea transport inhibitors” (The Regents of the University of California, priority 2014, dated 2021).

As for `CC(=O)Nc1ccc(-c2csc(-c3c[nH]c4ccccc34)n2)cc1` [UTA1inh-E02, N-(4-(2-(1H-indol-3-yl)thiazol-4-yl)phenyl)acetamide], at rat UT-A1 (3 μM inhibitor, different times after addition), the “Kinetics of UT-A1 inhibition” value is “occurred over minutes”. For the same molecule, the “Mechanism of inhibition of urea transport” value at rat UT-A1 is on record as “non-competitive”. Further, the “inhibition of transepithelial urea transport” value against UT-A1 is recorded as about 50%. In series [1], the short-circuit current result is given as “Neither inhibitor at 20 μM altered short-circuit current”.

As for `COc1ccc(C)cc1S(=O)(=O)Nc1ccc(Cl)c(N2CCCS2(=O)=O)c1` [UTA1inh-F11, N-[4-Chloro-3-(1,1-dioxido-1,2-thiazolidin-2-yl)phenyl]-2-methoxy-5-methylbenzene-sulfonamide], the “Mechanism of inhibition of urea transport” value at rat UT-A1 was “non-competitive”. The “inhibition of transepithelial urea transport” value against UT-A1 is recorded as about 50%. Besides, in series [1], the short-circuit current result is “Neither inhibitor at 20 μM altered short-circuit current”.
